# According to patent publication US10814612B2, “Use of thiazolide compounds for the prevention and treatment of viral diseases, cancer and diseases caused by intracellular infections” (priority 2011, dated 2020):
# Read-outs that look alike come from different tables or passages of the source.
# How the values were obtained:
# CD8+ T cells = assay: CTL activity: perforin-, granzyme- and Fas-expressing CD8+ T cells; assay type: cell-based, human; conditions: for percentage of Fas-expressing CD8+ T cells: 20 and 40 μg/ml
# [1] = tested on: Type I interferon signalling pathway; assay: Type I interferon pathway Real-time PCR array (84 genes) in PBMC; assay type: cell-based, human
# [2] = tested on: RNA and DNA viruses including influenza A and hepatitis C viruses; conditions: cited from earlier work
# CD4+ T cells = assay: T helper functions: IFNγ- and IL2-secreting CD4+ T cells; assay type: cell-based, human; conditions: for IFN-γ production by CD4+ T cells: 0.5 μg/ml
# CD14+ cells (monocytes) = assay type: cell-based, human
# [3] = humans, cited from earlier work
# [4] = tested on: rotavirus gastroenteritis, norovirus gastroenteritis and chronic hepatitis C; conditions: clinical trials; cited from earlier work
# [5] = tested on: Toll-Like Receptor signalling pathway; assay: TLR pathway Real-time PCR array (84 genes) in PBMC; assay type: cell-based, human; conditions: 3 hours
# [6] = PMBCs, TIZ 0.5, 1.0 and 10 mg/ml, FIG. 3A
# [7] = after oral nitazoxanide or nitazoxanide plus tizoxanide
# [8] = flu-stimulated PBMC, 3 hours, 1 μg/ml
# [9] = all five doses, unstimulated and flu-stimulated
# [10] = flu-stimulated PBMC, all doses tested
compound,measurement,setting,value
O=C(Nc1ncc([N+](=O)[O-])s1)c1ccccc1O [Tizoxanide],CTL degranulation,"CD8+ T cells; PMBCs, TIZ 0.5, 1.0 and 10 mg/ml, FIG. 5B",increase
same,Fas-expressing CD8+ T cells,"CD8+ T cells; PMBCs, TIZ 0.5, 1.0 and 10 mg/ml, FIG. 5C",increase
same,IFNα-mRNA expression,[1]; [6],increase
same,IFNβ-mRNA expression,[1]; [6],increase
same,"mRNA specific for type I IFN inducible genes (MXA, PRKCZ, ADAR, CXCL10, IRF1, PRKRA)","[1]; PMBCs, TIZ 0.5, 1.0 and 10 mg/ml, FIG. 3B",increase
same,"mRNA specific for gene involved in MHC class I presentation (HLA-A, HLA-B, TAP1)","[1]; PMBCs, TIZ 0.5, 1.0 and 10 mg/ml, FIG. 3C",increase
same,replication of RNA and DNA viruses including influenza A and hepatitis C viruses,[2],inhibit replication
same,IFNγ-secreting CD4+ T cells,"CD4+ T cells; PMBCs, TIZ 0.5, 1.0 and 10 mg/ml, unstimulated and flu-stimulated, FIG. 4A",increase
same,IL2-secreting CD4+ T cells,"CD4+ T cells; PMBCs, TIZ 0.5, 1.0 and 10 mg/ml, unstimulated and flu-stimulated, FIG. 4B",increase
same,TLR3- expression on monocytes,CD14+ cells (monocytes),increase
same,TLR7- expression on monocytes,CD14+ cells (monocytes),increase
same,TLR8- expression on monocytes,CD14+ cells (monocytes),increase
same,half-life in plasma,[3]; [7],approximately 1.5 hours
same,urinary elimination half-life,[3]; [7],7.3 h
same,plasma protein binding,[3],bound to plasma proteins
"CC(=O)Oc1ccccc1C(=O)Nc1ncc([N+](=O)[O-])s1 [Nitazoxanide, 2-(acetolyloxy)-N-(5-nitro-2-thiazolyl) benzamide]",replication of RNA and DNA viruses including influenza A and hepatitis C viruses,[2],inhibit replication
same,effectiveness in treating chronic hepatitis C,[4],effective
same,effectiveness in treating norovirus gastroenteritis,[4],effective
same,effectiveness in treating rotavirus gastroenteritis,[4],effective
"O=C(Nc1ncc(Cl)s1)c1ccccc1O [RM-4848, N-(5-chlorothiazol-2-yl)-2-hydroxybenzamide]",percentage of Fas-expressing CD8+ T cells,"CD8+ T cells; Flu-stimulated, p=0.003",statistically significantly increased
same,"degranulation of CTLs, evaluated by reduction in perforin expression",CD8+ T cells; three higher dose levels tested,induced a degranulation
same,percentage of Fas-expressing CD8+ T cells,"CD8+ T cells; un-stimulated, p=0.006",statistically significantly increased
same,IFI27 mRNA fold increase,"[1]; flu-stimulated PBMC, 10 μg/ml",> 4 fold
same,IFIT1 mRNA fold increase,"[1]; flu-stimulated PBMC, 10 μg/ml",> 4 fold
same,IFNA2 mRNA fold increase,[1]; [8],6 fold
same,INFA1 mRNA fold increase,[1]; [8],10 fold
same,INFA4 mRNA fold increase,[1]; [8],10 fold
same,INFB1 mRNA fold increase,[1]; [8],8 fold
same,"expression of the ISGs, IFI27 and IFIT1","[1]; flu-stimulated PBMC, the three dose levels (1, 10, 20 μg/ml)",moderately up-regulated
same,"Type I IFN inducible genes (CD70, COL16A1, HSPA1L, IFI27, IFIT1, NRG1 and SHB)",[1]; summary of Examples 4-8,upregulated
same,INFA1 mRNA fold decrease,"[1]; un-stimulated PBMC, 20 μg/ml",20 fold
same,INFA2 mRNA fold decrease,"[1]; un-stimulated PBMC, 20 μg/ml",15 fold
same,INFA4 mRNA fold decrease,"[1]; un-stimulated PBMC, 20 μg/ml",10 fold
same,INFB1 mRNA fold decrease,"[1]; un-stimulated PBMC, 20 μg/ml",15 fold
same,down-regulating effects on interferon genes,"[1]; un-stimulated PBMC, two lower doses of 1 and 10 μg/ml",not seen
same,IFN-γ production by CD4+ T cells,"CD4+ T cells; Flu-stimulated conditions, p=0.050",statistically significant upregulation
same,IFN-γ production by CD4+ T cells,"CD4+ T cells; un-stimulated cells, p=0.035",statistically significant upregulation
same,TLR3-expressing CD14+ cells,CD14+ cells (monocytes); [9],no effect
same,TLR8-expressing CD14+ cells,CD14+ cells (monocytes); [9],no effect
same,percentage of TLR7-expressing CD14+ cells compared to control,"CD14+ cells (monocytes); flu-antigenic stimulation, 1.0 μg/ml dose: p=0.001, 10 μg/ml dose: p=0.023",increase
same,percentage of TLR7-expressing CD14+ cells compared to control,CD14+ cells (monocytes); unstimulation condition,no significative differences
same,INFA1 mRNA fold increase,"[5]; flu-stimulated PBMC, 1 μg/ml",~6 fold
same,INFB1 mRNA fold increase,"[5]; flu-stimulated PBMC, 1 μg/ml",~6 fold
same,TLR3 mRNA fold increase,"[5]; flu-stimulated PBMC, 1 μg/ml",~7 fold
same,TLR5 mRNA fold increase,"[5]; flu-stimulated PBMC, 1 μg/ml",~7 fold
same,TLR9 mRNA fold increase,"[5]; flu-stimulated PBMC, 20 μg/ml",~6 fold
same,TLR8 mRNA fold change,[5]; [10],> 2 fold
same,TLR-7 mRNA fold change,[5]; [10],> 2 fold
same,IL1A mRNA fold increase,"[5]; un-stimulated PBMC, 20 μg/ml",~5 fold
same,IL1B mRNA fold increase,"[5]; un-stimulated PBMC, 20 μg/ml",~5 fold
same,IL6 mRNA fold increase,"[5]; un-stimulated PBMC, 20 μg/ml",~6 fold
